Measured values: US12661410B2, “Compounds for targeted degradation of RET” (C4 Therapeutics, Inc., priority 2020, dated 2026)
Where a chain is given by its changes, count along the chain named. Read-outs that look alike come from different tables or passages of the source.

What was measured:
[1] = target: T1, RET (658-1114) (Homo sapiens, UniProt P07949); test: HiBiT-Degradation, RET wild-type degradation assay (Nano-Glo HiBiT Lytic), 293T.144 cells; type: cell-based; settings: for DC50 / Emax: 6.0 hours; for DC50: read-out: 293T.144 RET (658-1114) 6.0 hours (DC50); for Emax: read-out: 293T.144 RET (658-1114) 6.0 hours (Emax)
T1 construct: 658-1114; expressed in transfected cells; host or cells: 293T.144 (293T cells, generated in-house)
T1 sequence (P07949 658-1114): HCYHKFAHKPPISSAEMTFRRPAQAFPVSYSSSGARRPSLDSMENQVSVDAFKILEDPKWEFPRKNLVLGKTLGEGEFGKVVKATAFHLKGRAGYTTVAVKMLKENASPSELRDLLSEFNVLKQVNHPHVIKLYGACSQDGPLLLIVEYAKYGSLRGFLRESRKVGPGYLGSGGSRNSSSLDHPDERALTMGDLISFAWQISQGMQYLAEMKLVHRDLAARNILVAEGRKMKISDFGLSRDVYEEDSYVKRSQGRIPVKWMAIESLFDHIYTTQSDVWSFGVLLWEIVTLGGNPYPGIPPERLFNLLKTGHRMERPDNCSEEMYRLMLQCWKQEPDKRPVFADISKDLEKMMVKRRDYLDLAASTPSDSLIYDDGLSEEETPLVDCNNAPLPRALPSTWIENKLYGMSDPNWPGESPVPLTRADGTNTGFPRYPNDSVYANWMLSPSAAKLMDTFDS
Outline: (§1)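 HEK293T lines expressing HiBiT-tagged RET kinase domain, wild-type (293T.144) or G810R (293T.165), treated 6 h in duplicate, 11-point half-log series from 10 μM top. Lytic HiBiT luminescence read; DC50 and Emax (% protein remaining) from dose-response curves.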

[2] = target: T2, RET(KD: 658-1114 G810R) (Homo sapiens, UniProt P07949, G810R); test: HiBiT-Degradation, RET G810R degradation assay (Nano-Glo HiBiT Lytic), 293T.165 cells; type: cell-based; settings: for Emax / DC50: 6.0 hours; for Emax: % remaining protein, read-out: 293T.165 RET(KD: 658-1114 G810R) 6.0 hours (Emax); for DC50: read-out: 293T.165 RET(KD: 658-1114 G810R) 6.0 hours (DC50)
T2 construct: 658-1114; expressed in transfected cells; host or cells: 293T.165 (293T cells, generated in-house)
T2 sequence (P07949 658-1114 G810R): T1 sequence (P07949 658-1114) with G153R
Outline: as §1

[3] = half-maximal degradation concentration

293T.144 RET (658-1114) 6.0 hours (IP) [nM] ([1]; HiBiT-Degradation)	DC50 ([1]; HiBiT-Degradation)	Emax ([1]; HiBiT-Degradation)	Emax [2]	DC50 [2, 3]	293T.165 RET(KD: 658-1114 G810R) 6.0 hours (Emax) ([2]; HiBiT-Degradation)	293T.165 RET(KD: 658-1114 G810R) 6.0 hours (IP) [nM] ([2]; HiBiT-Degradation)	DC50 ([2]; HiBiT-Degradation)	293T.144 RET (658-1114) 6.0 hours (IP) [nM] [1]	Emax ([1]; % remaining protein)	DC50 [1, 3]	293T.165 RET(KD: 658-1114 G810R) 6.0 hours (IP) [nM] [2]	SMILES
++++ (< 50 nM = ++++)	< 50 nM	< 30%	< 30%	< 50 nM	++++ (< 30% = ++++)	++++ (< 50 nM = ++++)	< 50 nM					N#Cc1cnn2cc(-c3cnn(C4CCN(C(=O)CN5CCC(c6ccc(NC7CCC(=O)NC7=O)cc6F)CC5)CC4)c3)cc(-c3ccc(N4CCN(C(=O)Cc5ccc(F)cn5)CC4)nc3)c12 (centres unmarked) [Compound 5, 6-[1-[1-[2-[4-[4-[(2,6-dioxo-3-piperidyl)amino]-2-fluoro-phenyl]-1-piperidyl]acetyl]-4-piperidyl]pyrazol-4-yl]-4-[6-[4-[2-(5-fluoro-2-pyridyl)acetyl]piperazin-1-yl]-3-pyridyl]pyrazolo[1,5-a]pyridine-3-carbonitrile]
			< 30%	< 50 nM				++++ (<50 nM = ++++)	< 30%	< 50 nM	++++ (<50 nM = ++++)	CCC1(C(=O)NC2CCOCC2)CCN(c2ccc(-c3nc(-c4cnn([C@H]5CC[C@H](N6CCC(c7ccc(N[C@@H]8CCC(=O)NC8=O)cc7F)CC6)CC5)c4)cn4ncc(C#N)c34)cn2)CC1 (stereo in doubt) [Compound 143, 1-(5-(3-cyano-6-(1-((1R,4r)-4-(4-(4-(((R)-2,6-dioxopiperidin-3-yl)amino)-2-fluorophenyl)piperidin-1-yl)cyclohexyl)-1H-pyrazol-4-yl)pyrazolo[1,5-a]pyrazin-4-yl)pyridin-2-yl)-4-ethyl-N-(tetrahydro-2H-pyran-4-yl)piperidine-4-carboxamide]
			< 30%	< 50 nM				++++ (<50 nM = ++++)	< 30%	< 50 nM	++++ (<50 nM = ++++)	CCC1(C(=O)NC(C)C)CCN(c2ccc(-c3nc(-c4cnn(C5CCN(C(=O)CC6(O)CCN(c7cc(OC)c(NC8CCC(=O)NC8=O)cc7F)CC6)CC5)c4)cn4ncc(C#N)c34)cn2)CC1 (centres unmarked) [Compound 91, 1-[5-[3-cyano-6-[1-[1-[2-[1-[4-[(2,6-dioxo-3-piperidyl)amino]-2-fluoro-5-methoxy-phenyl]-4-hydroxy-4-piperidyl]acetyl]-4-piperidyl]pyrazol-4-yl]pyrazolo[1,5-a]pyrazin-4-yl]-2-pyridyl]-4-ethyl-N-isopropyl-piperidine-4-carboxamide]
			< 30%	< 50 nM				++++ (<50 nM = ++++)	< 30%	< 50 nM	+++ (<100 nM = +++)	CCC1(C(=O)NC(C)(C)C)CCN(c2ccc(-c3nc(-c4cnn([C@H]5CC[C@H](N6CCN(c7c(F)cc(N[C@@H]8CCC(=O)NC8=O)cc7F)CC6)CC5)c4)cn4ncc(C#N)c34)cn2)CC1 (racemic) [Compound 219, N-tert-butyl-1-[5-[3-cyano-6-[1-[4-[4-[2,6-difluoro-4-[[rac-(3R)-2,6-dioxo-3-piperidyl]amino]phenyl]piperazin-1-yl]cyclohexyl]pyrazol-4-yl]pyrazolo[1,5-a]pyrazin-4-yl]-2-pyridyl]-4-ethyl-piperidine-4-carboxamide]
